The target of test [1] is Eukaryotic translation initiation factor 4E (Mus musculus, UniProt P63073). The experiment in a line: eIF4E–eIF4G protein interaction inhibitors, dose response, biochemical, TR-FRET (AID 855).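 Further: potency for disrupting eIF4E binding to eIF4GI seen as loss of FRET.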 In kind it is functional.
Test [2] has as its target 26S proteasome non-ATPase regulatory subunit 14 (Homo sapiens, UniProt O00487). Kind of test: inhibition of proteasome subunit RPN11 – biochemical, fluorescence polarization, uHTS hits, confirmation (AID 602368). The format is functional.
Test [3] has as its target Prothrombin (Bos taurus, UniProt P00735). Kind of test: thrombin inhibition, dose response, biochemical, fluorescence polarization, uHTS hits (AID 602369). The format is functional.
For test [4], the target named is Large T antigen (Simian virus 40, UniProt P03070). The format is functional, Betapolyomavirus macacae.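 Further: Confirmatory-stage PubChem screen for compounds that inhibit SV40 T antigen.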
Large T antigen, sequence (P03070 whole entry): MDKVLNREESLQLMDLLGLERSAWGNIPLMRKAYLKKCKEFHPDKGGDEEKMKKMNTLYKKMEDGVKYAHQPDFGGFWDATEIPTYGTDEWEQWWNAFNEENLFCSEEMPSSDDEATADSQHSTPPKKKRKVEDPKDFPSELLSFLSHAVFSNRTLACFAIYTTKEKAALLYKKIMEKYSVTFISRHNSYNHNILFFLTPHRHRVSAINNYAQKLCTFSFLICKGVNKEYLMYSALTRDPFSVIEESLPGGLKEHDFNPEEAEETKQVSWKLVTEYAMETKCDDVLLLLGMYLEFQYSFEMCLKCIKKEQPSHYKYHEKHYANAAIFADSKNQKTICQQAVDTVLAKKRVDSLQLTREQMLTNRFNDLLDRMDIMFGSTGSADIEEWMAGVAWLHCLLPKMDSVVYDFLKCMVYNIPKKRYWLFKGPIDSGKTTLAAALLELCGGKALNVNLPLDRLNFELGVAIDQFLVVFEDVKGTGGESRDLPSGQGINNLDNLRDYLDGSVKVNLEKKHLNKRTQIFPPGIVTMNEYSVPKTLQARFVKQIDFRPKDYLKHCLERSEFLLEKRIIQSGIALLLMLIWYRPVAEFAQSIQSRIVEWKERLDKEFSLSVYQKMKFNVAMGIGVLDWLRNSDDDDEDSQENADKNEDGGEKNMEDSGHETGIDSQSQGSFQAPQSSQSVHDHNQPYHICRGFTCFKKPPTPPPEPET
For test [5], the target named is T1, Histone-lysine N-methyltransferase NSD2 (Homo sapiens, UniProt O96028).
T1 sequence (O96028 whole entry): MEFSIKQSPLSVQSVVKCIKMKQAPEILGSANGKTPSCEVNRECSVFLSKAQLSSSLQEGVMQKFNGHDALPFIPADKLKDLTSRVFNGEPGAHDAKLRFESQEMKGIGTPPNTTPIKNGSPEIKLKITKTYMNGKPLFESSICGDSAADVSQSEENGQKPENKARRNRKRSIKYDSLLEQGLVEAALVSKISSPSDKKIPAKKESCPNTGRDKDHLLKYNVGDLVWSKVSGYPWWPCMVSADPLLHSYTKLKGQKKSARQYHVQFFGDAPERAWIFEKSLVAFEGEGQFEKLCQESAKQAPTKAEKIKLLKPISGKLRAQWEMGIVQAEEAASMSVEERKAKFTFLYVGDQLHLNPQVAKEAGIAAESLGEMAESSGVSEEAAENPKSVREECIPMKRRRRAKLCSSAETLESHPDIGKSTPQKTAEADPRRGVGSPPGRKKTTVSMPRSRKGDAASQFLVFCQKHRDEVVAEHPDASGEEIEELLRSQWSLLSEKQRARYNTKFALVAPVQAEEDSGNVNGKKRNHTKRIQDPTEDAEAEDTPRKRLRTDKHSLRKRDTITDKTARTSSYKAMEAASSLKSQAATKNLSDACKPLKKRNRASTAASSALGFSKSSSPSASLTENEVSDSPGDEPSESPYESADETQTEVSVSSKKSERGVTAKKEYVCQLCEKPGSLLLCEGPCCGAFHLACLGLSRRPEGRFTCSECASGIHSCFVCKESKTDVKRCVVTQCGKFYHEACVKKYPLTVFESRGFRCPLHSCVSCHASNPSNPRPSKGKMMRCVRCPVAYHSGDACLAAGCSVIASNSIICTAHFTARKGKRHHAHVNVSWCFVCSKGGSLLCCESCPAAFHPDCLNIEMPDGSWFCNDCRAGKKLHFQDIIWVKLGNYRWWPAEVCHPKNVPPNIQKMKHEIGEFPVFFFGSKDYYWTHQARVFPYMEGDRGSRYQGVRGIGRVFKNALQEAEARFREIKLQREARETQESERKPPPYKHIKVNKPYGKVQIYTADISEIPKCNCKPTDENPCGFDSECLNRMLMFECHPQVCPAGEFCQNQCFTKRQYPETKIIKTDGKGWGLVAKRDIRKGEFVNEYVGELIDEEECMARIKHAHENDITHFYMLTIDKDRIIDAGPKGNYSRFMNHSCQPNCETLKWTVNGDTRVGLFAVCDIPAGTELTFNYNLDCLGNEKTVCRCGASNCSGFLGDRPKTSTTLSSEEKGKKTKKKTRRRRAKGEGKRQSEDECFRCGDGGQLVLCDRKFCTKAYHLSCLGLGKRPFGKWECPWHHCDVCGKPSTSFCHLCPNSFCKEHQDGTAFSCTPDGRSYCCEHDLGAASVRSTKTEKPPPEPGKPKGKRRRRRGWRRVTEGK
In kind it is biochemical.

The target of test [6] is Induced myeloid leukemia cell differentiation protein Mcl-1 (Homo sapiens, UniProt Q07820). The format is functional.
Induced myeloid leukemia cell differentiation protein Mcl-1, sequence (Q07820 whole entry): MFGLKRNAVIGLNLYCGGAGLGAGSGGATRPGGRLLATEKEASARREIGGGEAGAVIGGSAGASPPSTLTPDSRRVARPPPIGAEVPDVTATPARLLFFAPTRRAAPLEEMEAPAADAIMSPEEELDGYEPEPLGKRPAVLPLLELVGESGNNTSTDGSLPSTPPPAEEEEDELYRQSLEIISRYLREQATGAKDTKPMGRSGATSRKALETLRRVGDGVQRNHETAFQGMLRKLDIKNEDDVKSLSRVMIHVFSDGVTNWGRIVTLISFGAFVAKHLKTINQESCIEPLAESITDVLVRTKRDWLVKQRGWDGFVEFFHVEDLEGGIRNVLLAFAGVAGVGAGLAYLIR
Test [7] has as its target DNA (cytosine-5)-methyltransferase 1 (Homo sapiens, UniProt P26358). The experiment in a line: DNMT1 methyltransferase inhibitors, confirmation, biochemical, fluorescent molecular beacon (AID 602386). In kind it is functional.
Test [8] addresses Genome polyprotein (dengue virus type 2, UniProt P29990). The experiment in a line: Dengue-2 NS5 methyltransferase inhibitors, primary screen, biochemical, confirmation dose response (AID 588689). In kind it is functional.
Test [9] addresses 72 kDa type IV collagenase (Homo sapiens, UniProt P08253). The experiment in a line: Dose Response validation of uHTS RPN11 inhibitor hits using a MMP-2 Fluorescence assay. The format is functional.
The subject of test [10] is Escherichia coli. Kind of test: microbe, parasite or virus in culture.
For test [11], the target named is Low molecular weight phosphotyrosine protein phosphatase (Homo sapiens, UniProt P24666). The format is functional. As to conditions: read-out: IC50_Mean.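 Further: Dose-response confirmation assay measuring inhibition of LMPTP enzyme activity by fluorescence intensity read-out.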
Low molecular weight phosphotyrosine protein phosphatase, sequence (P24666 whole entry): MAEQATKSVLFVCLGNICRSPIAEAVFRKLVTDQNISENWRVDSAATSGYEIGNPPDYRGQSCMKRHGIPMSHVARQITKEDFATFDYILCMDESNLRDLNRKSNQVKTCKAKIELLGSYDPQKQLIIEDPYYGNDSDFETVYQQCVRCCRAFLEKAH
Test [12] deals with T2, Apoptotic protease-activating factor 1 (Homo sapiens, UniProt O14727).
T2 sequence (O14727 whole entry): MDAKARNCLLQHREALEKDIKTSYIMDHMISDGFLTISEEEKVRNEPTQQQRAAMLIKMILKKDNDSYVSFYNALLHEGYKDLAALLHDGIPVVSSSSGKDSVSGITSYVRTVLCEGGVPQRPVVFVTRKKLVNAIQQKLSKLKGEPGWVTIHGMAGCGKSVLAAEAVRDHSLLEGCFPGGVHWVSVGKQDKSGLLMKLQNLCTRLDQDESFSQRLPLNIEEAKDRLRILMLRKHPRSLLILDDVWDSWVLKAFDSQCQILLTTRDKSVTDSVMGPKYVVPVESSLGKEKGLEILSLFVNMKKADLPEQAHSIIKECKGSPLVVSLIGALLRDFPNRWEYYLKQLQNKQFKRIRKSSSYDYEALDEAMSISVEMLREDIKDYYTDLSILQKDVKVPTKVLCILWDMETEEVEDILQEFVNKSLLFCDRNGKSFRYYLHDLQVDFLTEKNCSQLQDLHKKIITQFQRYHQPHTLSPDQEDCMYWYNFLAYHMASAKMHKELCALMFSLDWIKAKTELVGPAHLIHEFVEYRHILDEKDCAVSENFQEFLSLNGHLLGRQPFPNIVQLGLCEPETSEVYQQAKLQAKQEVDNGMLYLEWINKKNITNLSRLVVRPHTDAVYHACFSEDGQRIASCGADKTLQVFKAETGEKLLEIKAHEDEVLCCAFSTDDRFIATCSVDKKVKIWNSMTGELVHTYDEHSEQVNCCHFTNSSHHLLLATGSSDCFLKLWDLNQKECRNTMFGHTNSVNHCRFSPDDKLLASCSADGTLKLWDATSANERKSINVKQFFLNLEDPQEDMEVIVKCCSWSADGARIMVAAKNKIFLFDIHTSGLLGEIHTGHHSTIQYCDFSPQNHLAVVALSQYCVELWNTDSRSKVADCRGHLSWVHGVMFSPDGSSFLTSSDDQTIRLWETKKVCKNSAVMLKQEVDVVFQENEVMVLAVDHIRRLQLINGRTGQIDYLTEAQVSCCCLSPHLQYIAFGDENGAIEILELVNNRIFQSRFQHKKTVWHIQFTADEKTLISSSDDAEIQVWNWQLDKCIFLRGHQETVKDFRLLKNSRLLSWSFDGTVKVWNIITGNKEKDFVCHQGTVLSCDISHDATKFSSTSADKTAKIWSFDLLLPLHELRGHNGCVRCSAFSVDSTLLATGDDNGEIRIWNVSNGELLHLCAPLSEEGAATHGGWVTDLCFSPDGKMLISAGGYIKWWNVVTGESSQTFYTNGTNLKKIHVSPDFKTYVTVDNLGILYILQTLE
Kind of test: SAR analysis of small molecule Activators of Apaf-1 in a Fluorescent assay. In kind it is functional. As to conditions: read-out: EC50_Mean.

For test [13], the target named is T3, Melanocortin receptor 4 (Homo sapiens, UniProt P32245). Kind of test: MC4R antagonist potency on cAMP, dose response, cell-based, TR-FRET, biased antagonists (AID 602298).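 Further: antagonist potency against agonist-stimulated cAMP production.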 In kind it is functional.
T3 sequence (P32245 whole entry): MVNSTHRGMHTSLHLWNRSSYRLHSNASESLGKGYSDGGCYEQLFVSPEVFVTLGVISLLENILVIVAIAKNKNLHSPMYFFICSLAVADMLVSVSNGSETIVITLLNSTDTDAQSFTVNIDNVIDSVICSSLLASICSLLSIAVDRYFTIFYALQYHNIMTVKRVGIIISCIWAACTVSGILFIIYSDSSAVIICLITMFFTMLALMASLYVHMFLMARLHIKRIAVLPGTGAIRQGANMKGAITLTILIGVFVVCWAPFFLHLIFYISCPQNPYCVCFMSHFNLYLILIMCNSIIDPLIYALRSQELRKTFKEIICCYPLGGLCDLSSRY
A short description of test [14]: nonselective inhibitors of cellular cAMP signaling, dose response, counter-screen for MC4R biased antagonist project, cell-based, TR-FRET cAMP detection (AID 602305).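 Further: U2OS cells stimulated with forskolin near its EC80 as the cAMP inducer; potency is for inhibition of forskolin-stimulated cAMP signaling.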 The format is functional.
The target of test [15] is T4, Ubiquitin-conjugating enzyme E2 N (Homo sapiens, UniProt P61088).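 Further: Dose-response confirmation in a TR-FRET assay detecting UBC13-driven polyubiquitin chain formation, inhibition measured.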
T4 sequence (P61088 whole entry): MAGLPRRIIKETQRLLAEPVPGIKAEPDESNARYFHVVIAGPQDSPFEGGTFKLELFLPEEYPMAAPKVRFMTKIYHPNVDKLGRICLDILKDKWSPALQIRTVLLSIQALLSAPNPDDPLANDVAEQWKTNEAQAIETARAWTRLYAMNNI
The format is functional.

The target of test [16] is T5, Carboxy-terminal domain RNA polymerase II polypeptide A small phosphatase 1 (Homo sapiens, UniProt Q9GZU7).
T5 sequence (Q9GZU7 whole entry): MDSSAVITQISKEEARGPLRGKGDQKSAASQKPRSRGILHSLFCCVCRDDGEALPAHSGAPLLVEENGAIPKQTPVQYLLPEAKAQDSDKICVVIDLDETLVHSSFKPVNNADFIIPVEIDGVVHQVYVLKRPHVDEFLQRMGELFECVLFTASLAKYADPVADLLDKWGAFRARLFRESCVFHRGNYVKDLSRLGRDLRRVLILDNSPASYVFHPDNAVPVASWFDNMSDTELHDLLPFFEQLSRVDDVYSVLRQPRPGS
Kind of test: inhibitors of CTDSP1, concentration-response testing, biochemical assay, absorbance-based, actives from ultra-high-throughput screening (AID 540297). The format is functional.

Test [17] deals with T3, Melanocortin receptor 4. In kind it is functional, cell-based.
The target of test [18] is Aurora kinase A (Homo sapiens, UniProt O14965). The format is functional.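 Further: value from the Navigating the Kinome kinase panel profiling, panel entry STK6.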
For test [19], the target named is Aurora kinase B (Homo sapiens, UniProt Q96GD4). In kind it is functional.
Test [20] concerns Streptococcus sp. 'group A'. The experiment in a line: growth inhibition of control SK(-) GAS strain, dose response, counter-screen for streptokinase expression inhibitor project, luminescence, kanamycin, BacTiterGlo, confirmation (AID 1900). As to conditions: Streptococcus sp. 'group A'. In kind it is functional, organism-based.
The target of test [21] is T6, Streptokinase A (Streptococcus pyogenes serotype M1, UniProt P10520).
T6 sequence (P10520 whole entry): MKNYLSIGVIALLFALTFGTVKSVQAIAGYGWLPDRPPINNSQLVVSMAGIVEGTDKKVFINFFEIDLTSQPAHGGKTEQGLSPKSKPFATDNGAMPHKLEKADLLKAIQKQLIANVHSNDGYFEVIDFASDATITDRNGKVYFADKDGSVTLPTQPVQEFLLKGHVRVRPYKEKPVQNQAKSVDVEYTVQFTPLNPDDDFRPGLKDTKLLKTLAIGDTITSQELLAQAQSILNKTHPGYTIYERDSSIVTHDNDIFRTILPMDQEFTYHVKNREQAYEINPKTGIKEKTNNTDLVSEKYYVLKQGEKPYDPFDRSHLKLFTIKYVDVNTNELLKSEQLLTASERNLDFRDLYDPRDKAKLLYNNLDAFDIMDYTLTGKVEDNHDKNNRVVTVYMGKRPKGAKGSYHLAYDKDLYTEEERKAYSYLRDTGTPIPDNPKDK
Kind of test: S. pyogenes streptokinase expression inhibitors, potency, dose response, plasminogen activation absorbance, OD405 (AID 1914).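 Further: secreted streptokinase activity via plasminogen activation per viability signal from cell pellet.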 The format is functional, Streptococcus pyogenes M1 GAS.

In test [22] the test system is Streptococcus. Kind of test: Group A Streptococcus viability loss, dose response, counter-screen for streptokinase expression inhibitor project, luminescence, BacTiterGlo (AID 1915).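 Further: potency for reduction of bacterial viability or growth.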 The format is functional, organism-based. As to conditions: Streptococcus.

The results in this text go back to ChEMBL document CHEMBL1201862, “PubChem BioAssay data set” (2004).

Activity calls are given as the source filed them.
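Wherever EC50 Mean is given: caspase-3 cleavage of fluorogenic Rh110 DEVD substrate downstream of apoptosome activation.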

26S proteasome non-ATPase regulatory subunit 14, sequence (O00487 whole entry): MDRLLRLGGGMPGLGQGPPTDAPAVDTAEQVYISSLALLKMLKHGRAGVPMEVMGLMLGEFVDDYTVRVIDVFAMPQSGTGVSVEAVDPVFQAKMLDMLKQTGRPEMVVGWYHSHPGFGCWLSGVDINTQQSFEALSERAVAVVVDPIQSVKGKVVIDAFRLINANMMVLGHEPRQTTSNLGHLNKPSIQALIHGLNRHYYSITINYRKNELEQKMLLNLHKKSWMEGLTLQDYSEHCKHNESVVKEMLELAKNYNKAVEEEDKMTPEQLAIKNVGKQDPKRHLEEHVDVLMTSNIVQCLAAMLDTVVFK
72 kDa type IV collagenase, sequence (P08253 whole entry): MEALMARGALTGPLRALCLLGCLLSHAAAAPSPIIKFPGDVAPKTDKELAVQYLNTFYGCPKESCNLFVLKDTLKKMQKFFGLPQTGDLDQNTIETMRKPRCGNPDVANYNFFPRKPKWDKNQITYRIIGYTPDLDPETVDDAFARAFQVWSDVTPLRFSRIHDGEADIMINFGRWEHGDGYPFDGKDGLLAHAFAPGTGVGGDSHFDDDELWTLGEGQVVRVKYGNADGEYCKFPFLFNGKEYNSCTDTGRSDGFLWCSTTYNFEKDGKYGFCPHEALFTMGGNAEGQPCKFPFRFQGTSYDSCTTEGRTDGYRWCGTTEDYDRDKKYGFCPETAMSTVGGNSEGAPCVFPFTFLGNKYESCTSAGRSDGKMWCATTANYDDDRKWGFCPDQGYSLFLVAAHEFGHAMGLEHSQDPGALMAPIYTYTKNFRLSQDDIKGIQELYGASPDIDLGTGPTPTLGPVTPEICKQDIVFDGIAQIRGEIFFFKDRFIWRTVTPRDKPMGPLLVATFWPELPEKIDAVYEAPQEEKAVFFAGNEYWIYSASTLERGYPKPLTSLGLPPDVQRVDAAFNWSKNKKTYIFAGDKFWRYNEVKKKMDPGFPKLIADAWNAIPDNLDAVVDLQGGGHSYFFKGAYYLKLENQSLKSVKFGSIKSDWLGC
DNA (cytosine-5)-methyltransferase 1, sequence (P26358 whole entry): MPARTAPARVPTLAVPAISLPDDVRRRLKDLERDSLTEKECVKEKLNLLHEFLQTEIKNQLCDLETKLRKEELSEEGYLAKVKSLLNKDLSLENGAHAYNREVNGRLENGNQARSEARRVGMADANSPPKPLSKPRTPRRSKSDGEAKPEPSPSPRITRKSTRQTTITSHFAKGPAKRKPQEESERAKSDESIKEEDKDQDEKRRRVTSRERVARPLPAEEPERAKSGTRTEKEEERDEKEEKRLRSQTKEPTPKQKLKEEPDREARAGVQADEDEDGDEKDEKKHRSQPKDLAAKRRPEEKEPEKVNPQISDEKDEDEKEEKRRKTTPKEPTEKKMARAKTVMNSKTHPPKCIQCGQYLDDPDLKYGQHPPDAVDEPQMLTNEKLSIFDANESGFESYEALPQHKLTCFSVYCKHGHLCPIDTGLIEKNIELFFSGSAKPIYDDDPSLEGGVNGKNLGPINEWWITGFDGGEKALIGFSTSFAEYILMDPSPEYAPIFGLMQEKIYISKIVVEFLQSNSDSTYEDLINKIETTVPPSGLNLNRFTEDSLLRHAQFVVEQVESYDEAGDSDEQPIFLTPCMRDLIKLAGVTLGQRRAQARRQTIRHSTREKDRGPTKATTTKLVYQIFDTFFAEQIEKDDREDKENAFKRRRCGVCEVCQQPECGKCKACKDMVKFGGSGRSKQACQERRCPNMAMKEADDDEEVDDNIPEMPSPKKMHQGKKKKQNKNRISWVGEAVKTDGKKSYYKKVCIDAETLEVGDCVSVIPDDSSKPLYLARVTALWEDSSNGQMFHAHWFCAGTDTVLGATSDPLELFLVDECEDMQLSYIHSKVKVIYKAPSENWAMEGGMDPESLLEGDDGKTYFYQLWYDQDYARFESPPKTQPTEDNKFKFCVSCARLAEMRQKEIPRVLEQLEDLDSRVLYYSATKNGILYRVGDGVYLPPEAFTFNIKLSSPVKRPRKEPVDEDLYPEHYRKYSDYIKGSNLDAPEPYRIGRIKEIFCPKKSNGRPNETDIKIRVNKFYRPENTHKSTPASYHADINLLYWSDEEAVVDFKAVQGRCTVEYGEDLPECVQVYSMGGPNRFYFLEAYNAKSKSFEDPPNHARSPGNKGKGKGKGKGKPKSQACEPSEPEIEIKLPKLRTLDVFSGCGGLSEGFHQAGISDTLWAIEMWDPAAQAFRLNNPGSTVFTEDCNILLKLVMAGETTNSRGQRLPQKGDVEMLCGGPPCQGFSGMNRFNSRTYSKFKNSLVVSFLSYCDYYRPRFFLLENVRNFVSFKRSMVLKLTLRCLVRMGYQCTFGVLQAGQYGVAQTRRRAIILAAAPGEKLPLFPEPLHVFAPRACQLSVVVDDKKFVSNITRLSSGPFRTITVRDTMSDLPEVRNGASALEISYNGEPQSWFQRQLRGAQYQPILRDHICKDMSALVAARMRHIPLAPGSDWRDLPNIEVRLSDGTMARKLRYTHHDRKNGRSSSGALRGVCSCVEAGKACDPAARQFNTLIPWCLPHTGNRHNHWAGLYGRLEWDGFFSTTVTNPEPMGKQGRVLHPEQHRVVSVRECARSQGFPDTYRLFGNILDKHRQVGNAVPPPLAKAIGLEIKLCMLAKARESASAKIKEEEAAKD
Genome polyprotein, sequence (P29990 2492-3391 limits assumed): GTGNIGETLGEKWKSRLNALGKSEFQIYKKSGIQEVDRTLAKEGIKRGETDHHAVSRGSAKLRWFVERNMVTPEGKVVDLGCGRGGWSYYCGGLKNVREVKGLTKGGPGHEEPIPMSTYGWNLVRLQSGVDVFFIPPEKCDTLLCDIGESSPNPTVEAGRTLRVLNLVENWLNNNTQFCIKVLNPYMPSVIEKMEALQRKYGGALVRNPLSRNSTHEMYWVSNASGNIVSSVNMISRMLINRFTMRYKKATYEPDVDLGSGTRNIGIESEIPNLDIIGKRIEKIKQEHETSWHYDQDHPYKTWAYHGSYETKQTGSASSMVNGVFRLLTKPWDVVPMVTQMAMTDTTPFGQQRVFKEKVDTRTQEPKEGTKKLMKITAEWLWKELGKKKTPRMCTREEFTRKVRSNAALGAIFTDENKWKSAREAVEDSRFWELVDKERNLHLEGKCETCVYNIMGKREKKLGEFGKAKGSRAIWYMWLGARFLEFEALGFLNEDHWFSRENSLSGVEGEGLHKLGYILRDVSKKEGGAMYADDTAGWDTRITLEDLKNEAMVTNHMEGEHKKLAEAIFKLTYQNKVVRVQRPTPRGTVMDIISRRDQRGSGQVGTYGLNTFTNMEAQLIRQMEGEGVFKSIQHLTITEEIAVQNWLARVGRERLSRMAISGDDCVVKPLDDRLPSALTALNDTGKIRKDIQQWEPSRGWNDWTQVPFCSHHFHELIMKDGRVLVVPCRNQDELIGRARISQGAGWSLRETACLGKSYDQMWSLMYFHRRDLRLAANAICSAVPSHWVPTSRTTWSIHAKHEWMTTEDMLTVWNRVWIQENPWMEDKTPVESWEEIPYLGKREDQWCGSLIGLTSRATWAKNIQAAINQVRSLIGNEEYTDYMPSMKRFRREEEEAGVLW

With `O=C1NN(c2ccc(Cl)cc2)C(=O)/C1=C\c1ccc(-c2cccc(C(=O)O)c2)o1`, the IC50 was 50 µM (inactive) in test [1]; 10.9 µM (active) in test [2]; 19.8 µM (active) in [3]; 27.1 µM (active) in test [4]; 3.21 µM (active) in test [6]; 7.39 µM (active) in test [7]. In addition, the IC50 in test [8] was 77.3 µM (active); in test [9], 56.7 µM (active). In addition, the AC50 in test [5] is > 20 µM (inactive).
For the compound `CCn1cc(C(=O)O)c(=O)c2cc(F)c(N3CCN(C(=S)NC(=O)c4ccccc4C)CC3)cc21`, the concentration at half-maximal activity (AC50) in [10] is 8.2 µM (active). The IC50 in [11] was 7.19 µM (active).
Turning to `CC(CNc1ccccc1Cl)C(=O)O` (configuration not stated), the EC50 in [12] was > 100 µM (inactive).
For the compound `CC(C)[C@H](CN1CCC[C@H]1CN1C(N)=NC[C@H]1C(C)C)N1C[C@@H](Cc2ccccc2)N(CCCC2CCCC2)C1=N`, the IC50 is 17.7 µM (inactive) in test [13], > 64.5 µM (inactive) in test [14] and > 20 µM (inactive) in [15].
Consider `Cc1ccc(-n2nnc3c(=O)n(CC(=O)NCc4ccccc4)cnc32)cc1`, for which the IC50 was 24.8 µM (active) in test [2], > 100 µM (inactive) in [3], 5.33 µM (active) in test [16] and 12.7 µM (active) in [9].
For `O=C(CSc1ccccc1)Nc1nnc(/C=C/c2ccccc2)s1`, the EC50 in test [17] was > 89.2 µM (inactive).
Turning to `COCCOC1CCC(n2nc(-c3ccc(Nc4nc5cc(Cl)cc(C)c5o4)c(F)c3)c3c(N)ncnc32)CC1` (configuration not stated), the Ki in [18] was 0.126 µM (active); in test [19] it was 0.00794 µM (active).
In the case of `COc1ccc(-c2oc3ccc(N4CCOCC4)cc3c2C#CC2(O)CCCCC2)cc1`, the EC50 in [20] is 3.68 µM (active); in [21], > 150 µM (not active); in [22], 8.25 µM (active). In addition, the IC50 in test [13] and in test [14] was > 64.6 µM (inactive) each time.
